Measurements as given in paper PMC8315004, “Discovery of Small-Molecule Inhibitors of SARS-CoV-2 Proteins Using a Computational and Experimental Pipeline” (Frontiers in Molecular Biosciences, 2021).
Structures can show the parent of a compound that is named as a salt.

Molecular target: SARS-CoV-2 M^pro (Severe acute respiratory syndrome coronavirus 2, UniProt P0DTD1)
Assay: biochemical
Design: inhibition: dose or concentration left out as unconfirmed
Conditions: not given

| Compound | effect in the FRET-based activity assay (in words) |
| --- | --- |
| CCOc1nc2cccc(C(=O)O)c2n1Cc1ccc(-c2ccccc2-c2nnn[nH]2)cc1 [Candesartan] | no effect |

Same assay, conditions: initial screen, 100 μM of drug, Table S4

| Compound | Normalized Percent FRET inhibition [%] |
| --- | --- |
| Nc1nc(=O)c2c([nH]1)NC[C@H](CNc1ccc(C(=O)N[C@@H](CCC(=O)[O-])C(=O)[O-])cc1)N2C=O.[Ca+2] [Calcium Levofolinate] | 13 |
| CO/N=C(\C(=O)N[C@@H]1C(=O)N2C(C(=O)O)=C(CSc3nnnn3C)CS[C@H]12)c1csc(N)n1.CO/N=C(\C(=O)N[C@@H]1C(=O)N2C(C(=O)O)=C(CSc3nnnn3C)CS[C@H]12)c1csc(N)n1.Cl [Cefmenoxime hydrochloride] | -1.304 |
| Cc1cc(O)c(C(=O)N[C@@H](C(=O)N[C@@H]2C(=O)N3C(C(=O)O)=C(CSc4nnnn4C)CS[C@H]23)c2ccc(O)cc2)cn1 [Cefpiramide acid] | 7.373 |
| CC(C)CN(C[C@@H](O)[C@H](Cc1ccccc1)NC(=O)O[C@H]1CO[C@H]2OCC[C@H]21)S(=O)(=O)c1ccc(N)cc1.CCO [Darunavir Ethanolate] | -1.838 |
| CCC(=O)O[C@@H](O[P@](=O)(CCCCc1ccccc1)CC(=O)N1C[C@H](C2CCCCC2)C[C@H]1C(=O)[O-])C(C)C.[Na+] [Fosinopril sodium] | 3.315 |
| CCc1c2c(nc3ccc(OC(=O)N4CCC(N5CCCCC5)CC4)cc13)-c1cc3c(c(=O)n1C2)COC(=O)[C@]3(O)CC.Cl.O.O.O [Irinotecan hydrochloride trihydrate] | -2.22 |
| COc1ccc(CN2CCN(C(c3ccc(F)cc3)c3ccc(F)cc3)CC2)c(OC)c1OC.Cl.Cl [Lomerizine hydrochloride] | -0.2765 |
| OC[C@H]1O[C@H](O[C@H]2[C@H](O)[C@@H](O)[C@@H](O[C@H]3[C@H](O)[C@@H](O)[C@@H](O[C@H]4[C@H](O)[C@@H](O)C(O)O[C@@H]4CO)O[C@@H]3CO)O[C@@H]2CO)[C@H](O)[C@@H](O)[C@@H]1O (some centres unmarked) [MALTOTETRAOSE] | -0.9055 |

Same assay, conditions: initial screen, 100 μM of drug, Table S4; 100 µM

| Compound | Normalized Percent FRET inhibition [%] |
| --- | --- |
| CCN1CCN(C(=O)N[C@@H](C(=O)N[C@@H]2C(=O)N3C(C(=O)O)=C(CSc4nnnn4C)CS[C@H]23)c2ccc(O)cc2)C(=O)C1=O [Cefoperazone sodium] | 14.81 |
| CCN1CCN(C(=O)N[C@@H](C(=O)N[C@@H]2C(=O)N3C(C(=O)O)=C(CSc4nnnn4C)CS[C@H]23)c2ccc(O)cc2)C(=O)C1=O [Cefoperazone] | -0.3067 |

Same assay, conditions: initial screen, Table S4; read-out: Normalized Percent FRET inhibition

| Compound | inhibition [%] |
| --- | --- |
| CC1(C)CCC(CN2CCN(c3ccc(C(=O)NS(=O)(=O)c4ccc(NCC5CCOCC5)c([N+](=O)[O-])c4)c(Oc4cnc5[nH]ccc5c4)c3)CC2)=C(c2ccc(Cl)cc2)C1 [ABT199] | 6.27 |
| C[C@H]1O[C@H](O[C@H]2[C@H](O)[C@@H](O)[C@@H](O[C@H]3[C@H](O)[C@@H](O)C(O)O[C@@H]3CO)O[C@@H]2CO)[C@H](O)[C@@H](O)[C@@H]1N[C@H]1C=C(CO)[C@@H](O)[C@H](O)[C@H]1O (some centres unmarked) [Acarbose] | -3.44 |
| C[C@H]1CN(C[C@H](Cc2ccccc2)C(=O)NCC(=O)O)CC[C@@]1(C)c1cccc(O)c1 [Alvimopan] | -3.26 |
| C[C@@H](O[C@H]1OCCN(Cc2n[nH]c(=O)[nH]2)[C@H]1c1ccc(F)cc1)c1cc(C(F)(F)F)cc(C(F)(F)F)c1 [Aprepitant] | 3.37 |
| CC1CNc2c(cccc2S(=O)(=O)N[C@@H](CCCNC(=N)N)C(=O)N2CC[C@@H](C)C[C@@H]2C(=O)O)C1 (some centres unmarked) [Argatroban] | 13.5 |
| COC(=O)N[C@H](C(=O)N[C@@H](Cc1ccccc1)[C@@H](O)CN(Cc1ccc(-c2ccccn2)cc1)NC(=O)[C@@H](NC(=O)OC)C(C)(C)C)C(C)(C)C [Atazanavir] | -1.97 |
| CC1=C(C(=O)OC(C)C)C(c2cccc([N+](=O)[O-])c2)C(C(=O)OC2CN(C(c3ccccc3)c3ccccc3)C2)=C(N)N1 (centres unmarked) [Azelnidipine] | 8.17 |
| CCOc1nc2cccc(C(=O)OCc3oc(=O)oc3C)c2n1Cc1ccc(-c2ccccc2-c2noc(=O)[nH]2)cc1 [Azilsartan Medoxomil] | -1.99 |
| CC1(C)S[C@@H]2[C@H](NC(=O)[C@H](NC(=O)N3CCNC3=O)c3ccccc3)C(=O)N2[C@H]1C(=O)O [Azlocillin sodium] | -0.915 |
| NS(=O)(=O)c1cc2c(cc1C(F)(F)F)NC(Cc1ccccc1)NS2(=O)=O (centres unmarked) [Bendroflumethiazide] | 11.6 |
| COc1cc(N2CCC(N3CCN(C)CC3)CC2)ccc1Nc1ncc(Cl)c(Nc2ccccc2P(C)(C)=O)n1 [Brigatinib] | 5.97 |
| COc1cc2nccc(Oc3ccc(NC(=O)C4(C(=O)Nc5ccc(F)cc5)CC4)cc3)c2cc1OC [Cabozantinib Malate] | 0.386 |
| CO[C@@]1(NC(=O)C2SC(=C(C(N)=O)C(=O)O)S2)C(=O)N2C(C(=O)O)=C(CSc3nnnn3C)CS[C@@H]21 (some centres unmarked) [Cefotetan] | 2.14 |
| CC(C)C(=O)OCC(=O)[C@@]12O[C@H](C3CCCCC3)O[C@@H]1C[C@H]1[C@@H]3CCC4=CC(=O)C=C[C@]4(C)[C@H]3[C@@H](O)C[C@@]12C [Ciclesonide] | -0.393 |
| C[C@H]1O[C@@H](O[C@H]2[C@@H](O)C[C@H](O[C@H]3[C@@H](O)C[C@H](O[C@H]4CC[C@@]5(C)[C@H](CC[C@@H]6[C@@H]5CC[C@]5(C)[C@@H](C7=CC(=O)OC7)CC[C@]65O)C4)O[C@@H]3C)O[C@@H]2C)C[C@H](O)[C@@H]1O [Digitoxin] | 0.197 |
| COc1ccc(-c2cc(=O)c3c(O)cc(O[C@@H]4O[C@H](CO[C@@H]5O[C@@H](C)[C@H](O)[C@@H](O)[C@H]5O)[C@@H](O)[C@H](O)[C@H]4O)cc3o2)cc1O [Diosmin] | -0.378 |
| COc1cc2nc(N3CCN(C(=O)C4COc5ccccc5O4)CC3)nc(N)c2cc1OC (centres unmarked) [Doxazosin mesylate] | 0.919 |
| C[C@]12C=CC(=O)N[C@@H]1CC[C@@H]1[C@@H]2CC[C@]2(C)[C@@H](C(=O)Nc3cc(C(F)(F)F)ccc3C(F)(F)F)CC[C@@H]12 [Dutasteride] | -2.38 |
| CC1=C(C(=O)OCCN(Cc2ccccc2)c2ccccc2)C(c2cccc([N+](=O)[O-])c2)C(P2(=O)OCC(C)(C)CO2)=C(C)N1 (centres unmarked) [Efonidipine] | -1.16 |
| CC1=NN(c2ccc(C)c(C)c2)C(=O)/C1=N\Nc1cccc(-c2cccc(C(=O)O)c2)c1O [Eltrombopag Olamine] | 23.7 |

| Compound | inhibition [%] |
| --- | --- |
| CC1(C)[C@@H](O)CC[C@]2(C)[C@H]3C(=O)C=C4[C@@H]5C[C@@](C)(C(=O)O)CC[C@]5(C)CC[C@@]4(C)[C@]3(C)CC[C@@H]12 [Enoxolone] | 4.01 |
| C#C[C@]1(O)CC[C@H]2[C@@H]3CCc4cc(O)ccc4[C@H]3CC[C@@]21C [Ethynyl estradiol] | -3.17 |
| Cc1cc(C#N)cc(C)c1Oc1nc(Nc2ccc(C#N)cc2)nc(N)c1Br [Etravirine] | -0.895 |
| O=C1[C@H](CC[C@H](O)c2ccc(F)cc2)[C@@H](c2ccc(O)cc2)N1c1ccc(F)cc1 [Ezetimibe] | -1.34 |
| CC1(C)O[C@@H]2C[C@H]3[C@@H]4C[C@H](F)C5=CC(=O)C=C[C@]5(C)[C@@]4(F)[C@@H](O)C[C@]3(C)[C@]2(C(=O)CO)O1 [Fluocinolone acetonide] | 0.0249 |
| CC(C)=CCC[C@](C)(O[C@@H]1O[C@H](CO)[C@@H](O)[C@H](O)[C@H]1O)[C@H]1CC[C@]2(C)[C@@H]1[C@H](O)C[C@@H]1[C@@]3(C)CC[C@H](O)C(C)(C)[C@@H]3[C@@H](O[C@@H]3O[C@H](CO)[C@@H](O)[C@H](O)[C@H]3O)C[C@]12C [Ginsenoside Rg1] | 4.19 |
| OCCOCCN1CCN(C(c2ccccc2)c2ccc(Cl)cc2)CC1 (centres unmarked) [Hydroxyzine Pamoate] | 12.9 |
| C=CC(=O)N1CCC[C@@H](n2nc(-c3ccc(Oc4ccccc4)cc3)c3c(N)ncnc32)C1 [Ibrutinib] | -1.91 |
| C[C@@H](c1nc(-c2ccc(C#N)cc2)cs1)[C@](O)(Cn1cncn1)c1cc(F)ccc1F [Isavuconazole] | -0.886 |
| CS(=O)(=O)CCNCc1ccc(-c2ccc3ncnc(Nc4ccc(OCc5cccc(F)c5)c(Cl)c4)c3c2)o1 [Lapatinib Ditosylate] | -1.57 |
| CC#CCn1c(N2CCC[C@@H](N)C2)nc2c1c(=O)n(Cc1nc(C)c3ccccc3n1)c(=O)n2C [Linagliptin] | 8.28 |
| Cc1cccc(C)c1OCC(=O)N[C@@H](Cc1ccccc1)[C@@H](O)C[C@H](Cc1ccccc1)NC(=O)[C@H](C(C)C)N1CCCNC1=O [Lopinavir] | 18.2 |
| C#C[C@]1(O)CC[C@H]2[C@@H]3CCc4cc(OC)ccc4[C@H]3CC[C@@]21C [Mestranol] | -1.1 |
| CN(c1nccc(=O)[nH]1)C1CCN(c2nc3ccccc3n2Cc2ccc(F)cc2)CC1 [Mizolastine] | -0.317 |
| Cc1c(O)cccc1C(=O)N[C@@H](CSc1ccccc1)[C@H](O)CN1C[C@H]2CCCC[C@H]2C[C@H]1C(=O)NC(C)(C)C [Nelfinavir Mesylate] | 30.8 |
| CO[C@@H]1[C@@H](OC(N)=O)[C@@H](O)[C@H](Oc2ccc3c(O)c(NC(=O)c4ccc(O)c(CC=C(C)C)c4)c(=O)oc3c2C)OC1(C)C [Novobiocin Sodium] | -0.228 |
| CCCc1nc(C(C)(C)O)c(C(=O)OCc2oc(=O)oc2C)n1Cc1ccc(-c2ccccc2-c2nnn[nH]2)cc1 [Olmesartan Medoxomil] | 2.83 |
| C=CC(=O)Nc1cccc(Oc2nc(Nc3ccc(N4CCN(C)CC4)cc3)nc3ccsc23)c1 [Olmutinib] | -0.795 |
| C[C@@H]1O[C@@H](O[C@H]2C[C@@H](O)[C@]3(CO)[C@H]4[C@H](O)C[C@]5(C)[C@@H](C6=CC(=O)OC6)CC[C@]5(O)[C@@H]4CC[C@]3(O)C2)[C@H](O)[C@H](O)[C@H]1O [Ouabain octahydrate] | -0.948 |
| Cc1cnc(C(=O)N[C@H]2CCCCC/C=C\[C@@H]3C[C@@]3(C(=O)NS(=O)(=O)C3CC3)NC(=O)[C@@H]3C[C@@H](Oc4nc5ccccc5c5ccccc45)CN3C2=O)cn1 [Paritaprevir] | 0.758 |

Same assay, conditions: read-out: Normalized Percent FRET inhibition

| Compound | inhibition at 100 µM [%] |
| --- | --- |
| CN1c2c(nc(N)[nH]c2=O)NCC1CNc1ccc(C(=O)N[C@@H](CCC(=O)O)C(=O)O)cc1 (some centres unmarked) [Calcium N5-methyltetrahydrofolate] | 3.74 |
| CC(=O)O[C@H]1C[C@@H]2CC[C@@H]3[C@H](CC[C@@]4(C)[C@H]3C[C@H]([N+]3(C)CCCCC3)[C@@H]4OC(C)=O)[C@@]2(C)C[C@@H]1[N+]1(C)CCCCC1 [Pancuronium bromide] | 10 |
